Results on 2 compounds are retold here after US6635641B2 (Agouron Pharmaceuticals, Inc., priority 2000, dated 2003).

Structures are written as SMILES.

Data set [1] has as its target T1, phosphorylated VEGF-R2Δ50 (FLVK-P) (Homo sapiens, UniProt P35968, DEL940-989/E990V).
T1 construct: VEGF-R2Δ50 contains residues 806-939 and 990-1171; made in house; host or cells: baculovirus/insect cells
Description: VEGF-R2 coupled spectrophotometric assay, phosphorylated construct (FLVK-P). The class given is biochemical. A digest of the protocol:
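Baculovirus-expressed VEGF-R2Δ50 (residues 806-939/990-1171, E990V), optionally autophosphorylated; ADP formation coupled via PK/LDH to NADH oxidation at 340 nm, pH 7.5 Hepes. FLVK-P: 1 mM ATP, 5.1 mM poly(E4Y1), 25 mM MgCl2; FLVK: 3 mM ATP, 20 mM poly(E4Y1), 60 mM MgCl2, 2 mM MnCl2. Ki from activity over compound concentrations.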

The subject of data set [2] is lung cancer cells (line MV522). The data set can be described thus: Cancer cell proliferation (MV522) assay (MTT). Format: cell-based. To be noted: MV522. A digest of the protocol: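 Proliferation was read by MTT reduction 72 h after compound addition, in a 4-day protocol with no starvation step. Two thousand MV522 cells were seeded in RPMI1640 with 10% FBS and 2 mM glutamine and given 1 day to attach before dosing.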

The target in data set [3] is T2, unphosphorylated VEGF-R2Δ50 (FLVK) (Homo sapiens, UniProt P35968, DEL940-989/E990V).
T2 construct: VEGF-R2Δ50 contains residues 806-939 and 990-1171; made in house; host or cells: baculovirus/insect cells
The data set can be described thus: VEGF-R2 coupled spectrophotometric assay, unphosphorylated construct (FLVK).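 Further: Baculovirus-expressed cytosolic kinase domain, ADP formation linked via pyruvate kinase and lactate dehydrogenase to NADH oxidation, read as falling absorbance at 340 nm.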 The class given is biochemical.
Description: A construct (VEGF-R2Δ50) of the cytosolic domain of human vascular endothelial growth factor receptor 2 (VEGF-R2) lacking the 50 central residues of the 68 residues of the kinase insert domain was expressed in a baculovirus/insect cell system. […] Autophosphorylation of the purified construct was performed by incubation of the enzyme at a concentration of 4 μM in the presence of 3 mM ATP and 40 mM MgCl2 in 100 mM Hepes, pH 7.5, containing 5% glycerol and 5 mM DTT, at 4° C. for 2 h.
The production of ADP from ATP that accompanies phosphoryl transfer was coupled to oxidation of NADH using phosphoenolpyruvate (PEP) and a system having pyruvate kinase (PK) and lactic dehydrogenase (LDH). The oxidation of NADH was monitored by following the decrease of absorbance at 340 nm (e340=6.22 cm^−1 mM^−1) using a Beckman DU 650 spectrophotometer. Assay conditions for phosphorylated VEGF-R2Δ50 (indicated as FLVK-P in the tables below) were the following: 1 mM PEP; 250 μM NADH; 50 units of LDH/mL; 20 units of PK/mL; 5 mM DTT; 5.1 mM poly(E4Y1); 1 mM ATP; and 25 mM MgCl2 in 200 mM Hepes, pH 7.5. Assay conditions for unphosphorylated VEGF-R2Δ50 (indicated as FLVK in the tables) were the following: 1 mM PEP; 250 μM NADH; 50 units of LDH/mL; 20 units of PK/mL; 5 mM DTT; 20 mM poly(E4Y1); 3 mM ATP; and 60 mM MgCl2 and 2 mM MnCl2 in 200 mM Hepes, pH 7.5. Assays were initiated with 5 to 40 nM of enzyme. Ki values were determined by measuring enzyme activity in the presence of varying concentrations of test compounds. The data were analyzed using Enzyme Kinetic and Kaleidagraph software.

In a further data set the target is T3, CDK4/Cyclin D3 complex (Homo sapiens, UniProt P11802).
T3 construct: made in house; host or cells: insect cells co-infected with baculovirus vectors
The data set can be described thus: CDK4/Cyclin D assay ([32P]ATP incorporation into Rb fragment). The class given is biochemical. To be noted: μM. Here is the method: A complex of human CDK4 and cyclin D3, or a complex of cyclin D1 and a fusion protein of human CDK4 and glutathione-S-transferase (GST-CDK4), was purified using traditional biochemical chromatographic techniques from insect cells that had been co-infected with the corresponding baculovirus expression vectors.
(§1) Cyclin-dependent kinase activity was measured by quantifying the enzyme-catalyzed, time-dependent incorporation of radioactive phosphate from [^32P]ATP into a recombinant fragment of the retinoblastoma protein. Unless noted otherwise, assays were performed in 96-well plates in a total volume of 50 μL, in the presence of 10 mM HEPES (N-[2-hydroxyethyl]piperazine-N′-[2-ethanesulfonic acid]) (pH 7.4), 10 mM MgCl2, 25 μM adenosine triphosphate (ATP), 1 mg/mL ovalbumin, 5 μg/mL leupeptin, 1 mM dithiothreitol, 10 mM β-glycerophosphate, 0.1 mM sodium vanadate, 1 mM sodium fluoride, 2.5 mM ethylene glycol-bis(β-aminoethyl ether)-N,N,N′N′-tetraacetic acid (EGTA), 2% (v/v) dimethylsulfoxide, and 0.03-0.2 μCi [^32P]ATP. The substrate (0.3-0.5 μg) was purified recombinant retinoblastoma protein fragment (Rb) (residues 386-928 of the native retinoblastoma protein; 62.3 kDa, containing the majority of the phosphorylation sites found in the native 106-kDa protein, as well as a tag of six histidine residues for ease of purification). Reactions were initiated with CDK2 (150 nM CDK2/Cyclin A complex) or CDK4 (50 nM CDK4/Cyclin D3 complex), incubated at 30° C., and terminated after 20 minutes by the addition of ethylenediaminetetraacetic acid (EDTA) to 250 mM. The phosphorylated substrate was then captured on a nitrocellulose membrane using a 96-well filtration manifold, and unincorporated radioactivity was removed by repeated washing with 0.85% phosphoric acid. Radioactivity was quantified by exposing the dried nitrocellulose membranes to a phosphorimager. Apparent Ki values were measured by assaying enzyme activity in the presence of different compound concentrations and subtracting the background radioactivity measured in the absence of enzyme. The kinetic parameters (kcat, Km for ATP) were measured for each enzyme under the usual assay conditions by determining the dependence of initial rates on ATP concentration. The data were fit to an equation for competitive inhibition using Kaleidagraph (Synergy Software), or were fit to an equation for competitive tight-binding inhibition using the software KineTic (BioKin, Ltd.). Measured Ki values for known inhibitors against CDK4 and CDK2 agreed with published IC50 values. The specific activity of CDK4 was the same whether complexed to full-length cyclin D3 or the truncated Cyclin D3 construct; both complexes also yielded very similar Ki values for selected inhibitors.

In a further data set the target is CDK2/Cyclin A complex (Homo sapiens, UniProt P24941). Description: CDK2/Cyclin A assay ([32P]ATP incorporation into Rb fragment). The class given is biochemical. To be noted: μM. As to the method: CDK2 was purified using published methodology (Rosenblatt et al., J. Mol. Biol., 230, 1317-1319 (1993)) from insect cells that had been infected with a baculovirus expression vector. Cyclin A was purified from E. coli cells expressing full-length recombinant cyclin A, and a truncated cyclin A construct was generated by limited proteolysis and purified as described previously (Jeffrey et al., Nature, 376, 313-320 (1995)).
as §1, with “The specific activity of CDK4 was the same whether complexed to full-length cyclin D3 or the truncated Cyclin D3 construct; both complexes also yielded very similar Ki values for selected inhibitors.” left out

Data set [4] concerns human umbilical vein endothelial cells (HUVEC). Description: HUVEC proliferation assay (VEGF-stimulated, MTT). Format: cell-based. To be noted: Homo sapiens, HUVEC; read-out: HUVEC IC50. The procedure, abridged:
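Exponentially growing HUVEC (passage 3-4) were serum-starved 24 h in F12K + 1% FBS, given test compound (final DMSO 0.1%), then stimulated 1 h later with VEGF at 6 ng/ml final. Proliferation read after 72 h by 4 h MTT dye reduction, absorbance at 595.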

Data set [5] concerns the target T4, phosphorylated VEGF-R2Δ50 (Homo sapiens, UniProt P35968, DEL940-989/E990V).
T4 construct: VEGF-R2Δ50 contains residues 806-939 and 990-1171; made in house; host or cells: baculovirus/insect cells
The data set can be described thus: VEGF-R2 ELISA assay (phosphogastrin formation). The class given is biochemical. The settings on record: @ 10 μM (ELISA); read-out: FLVK-P percent inhibition (ELISA). The text has this:
A construct (VEGF-R2Δ50) of the cytosolic domain of human vascular endothelial growth factor receptor 2 (VEGF-R2) lacking the 50 central residues of the 68 residues of the kinase insert domain was expressed in a baculovirus/insect cell system. Of the 1356 residues of full-length VEGF-R2, VEGF-R2Δ50 contains residues 806-939 and 990-1171, and also one point mutation (E990V) within the kinase insert domain relative to wild-type VEGF-R2. See commonly assigned, co-pending U.S. patent application Ser. No. 09/390,326, filed Sep. 7, 1999, incorporated by reference herein, for discussion of VEGF constructs and expression systems. Autophosphorylation of the purified construct was performed by incubation of the enzyme at a concentration of 4 μM in the presence of 3 mM ATP and 40 mM MgCl2 in 100 mM Hepes, pH 7.5, containing 5% glycerol and 5 mM DTT, at 4° C. for 2 h. […]
Formation of phosphogastrin was monitored using biotinylated gastrin peptide (1-17) as substrate. […] The activity of horseradish peroxidase was monitored using 2,2′-azino-di-[3-ethylbenzathiazoline sulfonate(6)] diammonium salt (ABTS). […] The horseradish peroxidase reaction was quenched by addition of acid (H2SO4), followed by absorbance reading at 405 nm. Ki values were determined by measuring enzyme activity in the presence of varying concentrations of test compounds. The data were analyzed using Enzyme Kinetic and Kaleidagraph software.
On the technique in general: In an ELISA, binding on a coated surface is turned into a signal by an enzyme label.

T3 sequence (P11802 whole entry): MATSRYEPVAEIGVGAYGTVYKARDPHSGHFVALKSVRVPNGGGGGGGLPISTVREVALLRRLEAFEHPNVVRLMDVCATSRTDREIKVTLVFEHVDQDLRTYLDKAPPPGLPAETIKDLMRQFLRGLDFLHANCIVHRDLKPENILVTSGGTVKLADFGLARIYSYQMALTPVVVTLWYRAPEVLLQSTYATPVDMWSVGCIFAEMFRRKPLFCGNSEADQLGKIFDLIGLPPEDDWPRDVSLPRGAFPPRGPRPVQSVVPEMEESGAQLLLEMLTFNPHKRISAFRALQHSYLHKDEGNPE
T3 sequence (P30281 whole entry partner): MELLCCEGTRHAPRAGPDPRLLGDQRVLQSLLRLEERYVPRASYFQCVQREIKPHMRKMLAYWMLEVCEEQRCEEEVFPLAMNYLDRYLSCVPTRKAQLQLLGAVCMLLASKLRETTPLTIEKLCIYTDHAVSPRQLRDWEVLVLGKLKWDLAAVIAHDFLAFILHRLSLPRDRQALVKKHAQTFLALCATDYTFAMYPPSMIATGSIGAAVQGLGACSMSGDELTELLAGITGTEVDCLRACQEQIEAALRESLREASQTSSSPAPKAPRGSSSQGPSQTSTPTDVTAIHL
T4 sequence (P35968 with tags, fused parts or gaps DEL940-989/E990V limits assumed): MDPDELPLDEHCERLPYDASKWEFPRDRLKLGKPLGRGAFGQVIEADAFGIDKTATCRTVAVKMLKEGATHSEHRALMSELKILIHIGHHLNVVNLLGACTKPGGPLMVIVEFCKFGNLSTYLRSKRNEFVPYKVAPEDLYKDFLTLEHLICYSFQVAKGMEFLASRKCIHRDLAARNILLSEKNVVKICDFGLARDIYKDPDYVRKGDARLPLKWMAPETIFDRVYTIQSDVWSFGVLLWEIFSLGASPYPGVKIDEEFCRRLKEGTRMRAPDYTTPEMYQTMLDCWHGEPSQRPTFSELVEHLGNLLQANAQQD
T2 sequence (P35968 with tags, fused parts or gaps DEL940-989/E990V limits assumed): as above
T1 sequence (P35968 with tags, fused parts or gaps DEL940-989/E990V limits assumed): as above

The Ki is the dissociation constant of the complex between target and ligand, obtained from inhibition or displacement. By IC50 is commonly meant the point on the concentration scale where inhibition reaches its midpoint. For orientation: melting point means the temperature, or range, at which the solid turns liquid. The compound `COc1cc(NC(=O)c2cccc(SCc3cc(Nc4ccccc4)n[nH]3)c2)cc(OC)c1OC` [Example E-2] showed a melting point of 67 to 69 °C. The compound also displayed a Ki in data set [1] of 0.00479 µM. In addition, in data set [2], the IC50 was above 10 µM. For the same compound, the affinity in data set [3], expressed as Ki, was 0.00095 µM. At CDK4/Cyclin D3 complex, the Ki was above 100 µM. At CDK2/Cyclin A complex, the Ki was above 100 µM. Besides, the IC50 in data set [4] was determined as 0.055 µM.
Broadly, the inhibition is the share of the control response that was lost under treatment. Turning to `O=C(NCc1ccc2c(c1)OCO2)c1cccc(CSc2ncnc3[nH]ncc23)c1` [Example B-6, N-(1,3-Benzodioxyl-5-ylmethyl)-3-[(1H-pyrazolo[3,4-d]pyrimidin-4-yl)sulfanylmethyl]benzamide], the inhibition at 10 µM in data set [5] worked out at 62%.
